{"source": "patent US4401604A", "about": "“Process for preparing thiosulfenamide derivatives of N-phosphonomethylglycine triesters” (Monsanto Company, priority 1981, dated 1983)", "assay_in_all_cases": "Post-emergence herbicidal activity, greenhouse", "assay_type_in_all_cases": "in vivo", "key": {"Rice": {"test_system": "Rice", "details": "Table II, 4 WAT", "text": "(§1) A good grade of top soil is placed in aluminum pans having holes in the bottom and compacted to a depth of 0.95 to 1.27 cm. from the top of the pan. A predetermined number of seeds of each of several dicotyledonous and monocotyledonous annual plant species and/or vegetative propagules for the perennial plant species are placed on the soil and pressed into the soil surface. The seeds and/or vegetative propagules are covered with soil and leveled. The pans are then placed on a sand bench in the greenhouse and watered from below as needed. After the plants reach the desired age (two to three weeks), each pan except for the control pans is removed individually to a spraying chamber and sprayed by means of an atomizer operating at a positive air pressure of approximately 1.46 kg/cm^2 absolute. The atomizer contains 6 ml. of a solution or suspension of the chemical. In that 6 ml., is an amount of a cyclohexanone emulsifying agent mixture to give a spray solution or suspension which contains about 0.4% by weight of the emulsifier. The spray solution or suspension contains a sufficient amount of the candidate chemical in order to give application rates corresponding to those set forth in the tables. The spray solution is prepared by taking an aliquot of a 1.0% by weight stock solution or suspension of the candidate chemical in an organic solvent such as acetone or tetrahydrofuran or in water. The emulsifying agent employed is a mixture comprising 35 weight percent butylamine dodecylbenzene sulfonate and 65 weight percent of a tall oil ethylene oxide condensate having about 11 moles of ethylene oxide per mole of tall oil. The pans are returned to the greenhouse and watered as before and the injury to the plants as compared to the control is observed at approximately two and four weeks as indicated in the tables under WAT and the results recorded. In some instances, the two-week observations are omitted.\n(§2) The post-emergence herbicidal activity index used in Table I is as follows:\n(§3) The plant species utilized in these tests are identified by letter in accordance with the following legend: […]"}, "Cocklebur": {"test_system": "Cocklebur", "details": "4 WAT", "text": "as §1, §2, §3"}, "Canada Thistle": {"test_system": "Canada Thistle", "details": "Table I, 4 WAT", "text": "as §1, §2, §3"}, "Velvetleaf": {"test_system": "Velvetleaf", "details": "4 WAT", "text": "as §1, §2, §3"}, "Downy Brome": {"test_system": "Downy Brome", "details": "4 WAT", "text": "as §1, §2, §3"}, "Quackgrass": {"test_system": "Quackgrass", "details": "Table I, 4 WAT", "text": "as §1, §2, §3"}, "Barnyardgrass": {"test_system": "Barnyardgrass", "details": "4 WAT", "text": "as §1, §2, §3"}, "Hemp Sesbania": {"test_system": "Hemp Sesbania", "details": "Table II, 4 WAT", "text": "as §1, §2, §3"}, "Sugar Beet": {"test_system": "Sugar Beet", "details": "Table II, 4 WAT", "text": "as §1, §2, §3"}, "Sorghum": {"test_system": "Sorghum", "details": "Table II, 4 WAT", "text": "as §1, §2, §3"}, "Johnsongrass": {"test_system": "Johnsongrass", "details": "Table I, 4 WAT", "text": "as §1, §2, §3"}, "Soybean": {"test_system": "Soybean", "details": "Table II, 4 WAT", "text": "as §1, §2, §3"}}}
{"smiles": "CCCCCCCCSSN(CC(=O)OC)CP(=O)(Oc1ccccc1)Oc1ccccc1", "note": "[II, Glycine, N-[(diphenoxyphosphinyl)methyl]-N-(octyldithio)-, methyl ester]", "values": [{"measurement": "post-emergence herbicidal activity index", "setting": "Rice; 0.28 kg/h", "value": "0 (0- 24% control)"}, {"measurement": "post-emergence herbicidal activity index", "setting": "Rice; 1.12 kg/h", "value": "1 (25-49% control)"}, {"measurement": "post-emergence herbicidal activity index", "setting": "Rice; 5.6 kg/h", "value": "3 (75-99% control)"}, {"measurement": "post-emergence herbicidal activity index", "setting": "Cocklebur; Table I, 5.6 kg/h", "value": "4 (100% control)"}, {"measurement": "post-emergence herbicidal activity index", "setting": "Cocklebur; Table I, 11.2 kg/h", "value": "3 (75-99% control)"}, {"measurement": "post-emergence herbicidal activity index", "setting": "Cocklebur; Table II, 0.28 kg/h", "value": "0 (0- 24% control)"}, {"measurement": "post-emergence herbicidal activity index", "setting": "Cocklebur; Table II, 1.12 kg/h", "value": "1 (25-49% control)"}, {"measurement": "post-emergence herbicidal activity index", "setting": "Cocklebur; Table II, 5.6 kg/h", "value": "3 (75-99% control)"}, {"measurement": "post-emergence herbicidal activity index", "setting": "Canada Thistle; 5.6 kg/h", "value": "0 (0- 24% control)"}, {"measurement": "post-emergence herbicidal activity index", "setting": "Canada Thistle; 11.2 kg/h", "value": "1 (25-49% control)"}, {"measurement": "post-emergence herbicidal activity index", "setting": "Velvetleaf; Table I, 5.6 kg/h", "value": "1 (25-49% control)"}, {"measurement": "post-emergence herbicidal activity index", "setting": "Velvetleaf; Table I, 11.2 kg/h", "value": "3 (75-99% control)"}, {"measurement": "post-emergence herbicidal activity index", "setting": "Velvetleaf; Table II, 0.28 kg/h", "value": "0 (0- 24% control)"}, {"measurement": "post-emergence herbicidal activity index", "setting": "Velvetleaf; Table II, 1.12 kg/h", "value": "0 (0- 24% control)"}, {"measurement": "post-emergence herbicidal activity index", "setting": "Velvetleaf; Table II, 5.6 kg/h", "value": "2 (50-74% control)"}, {"measurement": "post-emergence herbicidal activity index", "setting": "Downy Brome; Table I, 5.6 kg/h", "value": "2 (50-74% control)"}, {"measurement": "post-emergence herbicidal activity index", "setting": "Downy Brome; Table I, 11.2 kg/h", "value": "1 (25-49% control)"}, {"measurement": "post-emergence herbicidal activity index", "setting": "Downy Brome; Table II, 0.28 kg/h", "value": "0 (0- 24% control)"}, {"measurement": "post-emergence herbicidal activity index", "setting": "Downy Brome; Table II, 1.12 kg/h", "value": "0 (0- 24% control)"}, {"measurement": "post-emergence herbicidal activity index", "setting": "Downy Brome; Table II, 5.6 kg/h", "value": "2 (50-74% control)"}, {"measurement": "post-emergence herbicidal activity index", "setting": "Quackgrass; 5.6 kg/h", "value": "3 (75-99% control)"}, {"measurement": "post-emergence herbicidal activity index", "setting": "Quackgrass; 11.2 kg/h", "value": "1 (25-49% control)"}, {"measurement": "post-emergence herbicidal activity index", "setting": "Barnyardgrass; Table I, 5.6 kg/h", "value": "2 (50-74% control)"}, {"measurement": "post-emergence herbicidal activity index", "setting": "Barnyardgrass; Table I, 11.2 kg/h", "value": "2 (50-74% control)"}, {"measurement": "post-emergence herbicidal activity index", "setting": "Barnyardgrass; Table II, 0.28 kg/h", "value": "0 (0- 24% control)"}, {"measurement": "post-emergence herbicidal activity index", "setting": "Barnyardgrass; Table II, 1.12 kg/h", "value": "1 (25-49% control)"}, {"measurement": "post-emergence herbicidal activity index", "setting": "Barnyardgrass; Table II, 5.6 kg/h", "value": "3 (75-99% control)"}, {"measurement": "post-emergence herbicidal activity index", "setting": "Hemp Sesbania; 0.28 kg/h", "value": "0 (0- 24% control)"}, {"measurement": "post-emergence herbicidal activity index", "setting": "Hemp Sesbania; 1.12 kg/h", "value": "0 (0- 24% control)"}, {"measurement": "post-emergence herbicidal activity index", "setting": "Hemp Sesbania; 5.6 kg/h", "value": "1 (25-49% control)"}, {"measurement": "post-emergence herbicidal activity index", "setting": "Sugar Beet; 0.28 kg/h", "value": "0 (0- 24% control)"}, {"measurement": "post-emergence herbicidal activity index", "setting": "Sugar Beet; 1.12 kg/h", "value": "0 (0- 24% control)"}, {"measurement": "post-emergence herbicidal activity index", "setting": "Sugar Beet; 5.6 kg/h", "value": "3 (75-99% control)"}, {"measurement": "post-emergence herbicidal activity index", "setting": "Sorghum; 0.28 kg/h", "value": "0 (0- 24% control)"}, {"measurement": "post-emergence herbicidal activity index", "setting": "Sorghum; 1.12 kg/h", "value": "1 (25-49% control)"}, {"measurement": "post-emergence herbicidal activity index", "setting": "Sorghum; 5.6 kg/h", "value": "3 (75-99% control)"}, {"measurement": "post-emergence herbicidal activity index", "setting": "Johnsongrass; 5.6 kg/h", "value": "3 (75-99% control)"}, {"measurement": "post-emergence herbicidal activity index", "setting": "Johnsongrass; 11.2 kg/h", "value": "3 (75-99% control)"}, {"measurement": "post-emergence herbicidal activity index", "setting": "Soybean; 0.28 kg/h", "value": "0 (0- 24% control)"}, {"measurement": "post-emergence herbicidal activity index", "setting": "Soybean; 1.12 kg/h", "value": "0 (0- 24% control)"}, {"measurement": "post-emergence herbicidal activity index", "setting": "Soybean; 5.6 kg/h", "value": "2 (50-74% control)"}]}
